US10889627B2, “Pro-drug peptide with improved pharmaceutical properties” (UREKA SARL, priority 2017, dated 2021)
Read-outs that look alike come from different tables or passages of the source.

Tests used:
[1] = pH 7.4
Protocol: (§1) A solution of the compound (e.g., glucagon or analogues thereof) was prepared in a 0.01M HCl solution. Then 0.1 mL of the stock solution was diluted to 1 mL with HCl (0.01M) and the UV absorbance was measured (to 280 nm) with NanoDrop UV spectrometer (NanoDrop 1000 from Thermo Fischer Company). The pH of the remaining stock solution was adjusted to pH 7 using Na2HPO4 (0.1M) and the solution was allowed to stand overnight at 4° C. Then the solution was centrifuged three times (5 min, 4000 min^−1), 0.1 mL of the supernatant was removed and diluted to 1 mL with HCl solution (0.01M). The final UV absorbance was measured. The solubility was accessible by the following formula: (Final Absorbance/Initial Absorbance)×100=Percent Soluble

[2] = Solubility assay (Example 2, percent soluble by UV absorbance); conditions: PBS buffer (0.1M) at pH 7.4
Protocol: as §1

[3] = Stability assay in NaCl 0.9% aqueous solution (RP-HPLC); type: physicochemical; conditions: 1 mg/mL
Protocol: A solution of 1 mg/mL of peptide or peptidomimetic (glucagon or analog thereof) was prepared in a NaCl 0.9% aqueous solution and stored at room temperature, or 4° C., or 37° C. and or 50° C. The samples were analyzed by RP-HPLC on a Dionex U3000SD using a Macherey-Nagel Nucleodur C18ec column (4×100 mm, 3 μm) at a flow rate of 1 mL/min with UV detection at 200 nm. The mobile phase was composed of 0.1% (v/v) TFA-H2O (Solvent A) and 0.1% (v/v) TFA-CH3CN (Solvent B).

Wistar Rat = assay: Rat studies, blood glucose after i.v. dosing (Example 2); type: in vivo; conditions: Wistar rats, 3 hours fasting, 10 nM/kg i.v., FIGS. 12 and 13
Description: The rats (Wistar Rat, males, 8-week old, n=6 or 3) were housed in ventilated and enriched housing cages (310×125×127 mm^3) throughout the experimental phase. […] The rates were acclimated for 5 days with standard diet and tap water.

| Substance | Solubility at 1 mg/mL [1] [%] | Solubility at 1 mg/mL [2] [%] | Percentage of peptide remaining ([3]; 4° C., 1 month (T0 = 100%)) [%] | Percentage of peptide remaining ([3]; 4° C., 1 week (T0 = 100%)) [%] | Percentage of peptide remaining ([3]; 4° C., 5 months (T0 = 100%)) [%] | Percentage of peptide remaining ([3]; RT, 1 month (T0 = 100%)) [%] | Percentage of peptide remaining ([3]; RT, 1 week (T0 = 100%)) [%] | Percentage of peptide remaining ([3]; RT, 5 months (T0 = 100%)) [%] | Glycogen breakdown (increased blood glucose levels) compared to glucagon (Wistar Rat) |
| --- | --- | --- | --- | --- | --- | --- | --- | --- | --- |
| EPHSQGTFTSDYSKYLDSRRAQDFVQWLLNT-NH2 [Peptide 18] | 18 | – | – | – | – | – | – | – | – |
| K*PHSQGTFTSDYSKYLDSRRAQDFVQWLLNT-NH2 [Peptide 22] | – | 34 | – | – | – | – | – | – | – |
| KPKPKPHSQGTFTSDYSKYLDSRRAQDFVQWLLNT-NH2 [Peptide 14] | – | 77 | 99 | 99 | 97 | 97 | 99 | 87 | greater glycogen breakdown |
